According to patent US12583856B2, “Inhibitors of protein kinase A” (Blueprint Medicines Corporation, priority 2021, dated 2026):

Tests used:
[1] = system: PKA (phosphorylation of VASP on Serine 157); assay: Cellular potency assay: P-VASP(157) HTRF in Forskolin-stimulated Huh7 cells; format: cell-based; conditions: Homo sapiens, Huh-7, 4 hours compound, 5 μM Forskolin 30 minutes, read-out: Phos VASP(S157) IC50
How it was run: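 Huh7 cells in serum-free DMEM were pretreated with compound for 4 h at 37 °C (0.24% DMSO final), then stimulated with 5 μM forskolin for 30 min. Lysates were assayed for phospho-VASP Ser157 by HTRF sandwich immunoassay, read at 665/620 nm.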

PRKACA-DNAJB1 = molecular target: T1, PRKACA-DNAJB1 (Homo sapiens, UniProt P17612); assay: PRKACA-DNAJB1 enzyme assay (EZ Reader 2 electrophoretic mobility shift); format: biochemical; conditions: read-out: Enz PRKACA-DNAJB1 IC50
T1 construct: DNAJB1 (fusion partner, P25685); the other entry of the earlier key: DNAJB1 (P25685, DnaJ homolog subfamily B member 1)
Procedure: A Perkin Elmer electrophoretic mobility shift platform (the EZ Reader 2) was used to assess the activity of test compounds against a kinase of interest. Fluorescently labeled substrate peptide was incubated in the presence of kinase, ATP, and the test compound, so that a portion of the peptide was phosphorylated by the enzyme. At the end of the reaction, the mix of phosphorylated (product) and non-phosphorylated (substrate) peptide containing solutions was passed through the microfluidic system of the Perkin Elmer EZ Reader 2 under an applied potential difference. The presence of the phosphate group on the product peptide provided a difference in mass and charge between those of the substrate peptide, resulting in a separation of the substrate and product pools in the sample. As the stopped solutions passed under the instrument's LED light the phosphorylated and un-phosphorylated fluorophore bound peptides were detected and resolved as separate peaks. The ratio between these peaks therefore reflected the test compound's impact on the kinase at that concentration in that well under those conditions.

PRKACA = molecular target: T2, PRKACA (Homo sapiens, UniProt P17612); assay: PRKACA assay at Km (EZ Reader 2 electrophoretic mobility shift); format: biochemical; conditions: 5 μM ATP (Km), 1 μM Kemptide, 90 minutes at 25 C; read-out: Enz PRKACA IC50
T2 construct: purchased Millipore 539482
How it was run: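 PRKACA (0.18 nM) was incubated with 1 μM 5-FAM-Kemptide and 5 μM ATP for 90 min at 25 °C in HEPES pH 7.5 buffer with 10 mM MgCl2, 1% DMSO, then stopped with EDTA. Substrate and product were separated by microfluidic mobility shift, and IC50 was taken from a 4-parameter fit of normalised inhibition.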

[2] = system: FL-HCC (LI5132) PDX tumors; assay: Efficacy study in FL-HCC (LI5132) patient-derived xenograft (PDX) model; format: in vivo; conditions: oral delivery; compound 144: 30 mg/kg PO QDX34; FIG. 3
Text: Efficacy: To establish the PDX model, 72 mice were inoculated with patient tumor cells to yield at least 36 mice with tumors of the required size. 18 of these mice were selected for the study.

Compound	IC50 [1] [nM]	IC50 (PRKACA-DNAJB1) [nM]	IC50 (PRKACA) [nM]	FLC tumor growth inhibition [2]	tolerability of the dose [2]
O=C(N[C@@H]1c2ccccc2C[C@H]1N1CCCC1)c1ccc(-c2ccnc3[nH]cc(F)c23)nc1 [Compound 159]	0.01 to 100	1.01 to 5	≤ 1		
Cc1c[nH]c2nccc(-c3ccc(C(=O)N[C@@H]4c5c(F)cc(C(F)F)cc5C[C@@H]4O)cn3)c12 [Compound 162, N-[(1R,2S)-5-(Difluoromethyl)-7-fluoro-2-hydroxy-2,3-dihydro-1H-inden-1-yl]-6-{3-methyl-1H-pyrrolo[2,3-b]pyridin-4-yl}pyridine-3-carboxamide]	< 50	≤ 1	≤ 1	significant FLC tumor growth inhibition	tolerated
O=C(N[C@@H]1c2c(F)cccc2OC[C@@H]1O)c1ccc(-c2ccnc3[nH]ccc23)cn1 [Compound 127]	< 50	1.01 to 5	≤ 1		
O=C(N[C@@H]1c2c(Cl)cccc2C[C@H]1N1CC[C@@H](O)C1)c1ccc(-c2ccnc3[nH]ccc23)cn1 [Compound 176]	< 50	≤ 1	≤ 1		
Cc1c[nH]c2nccc(-c3ccc(C(=O)N[C@H]4CCOc5cccc(F)c54)cn3)c12 [Compound 121, (S)—N-(5-Fluorochroman-4-yl)-6-(3-methyl-1H-pyrrolo[2,3-b]pyridin-4-yl)nicotinamide]	0.01 to 100	1.01 to 5	≤ 1		
O=C(N[C@@H]1c2ccccc2C[C@H]1N1CCCC1)c1ccc(-c2ccnc3[nH]ccc23)nc1 [Compound 144, N-[(1R,2R)-2-(Pyrrolidin-1-yl)-2,3-dihydro-1H-inden-1-yl]-6-{1H-pyrrolo[2,3-b]pyridin-4-yl}pyridine-3-carboxamide]	< 50		≤ 1	significant FLC tumor growth inhibition	tolerated
O=C(N[C@@H]1c2ccccc2C[C@@H]1CO)c1ccc(-c2ccnc3[nH]ccc23)cc1 (single isomer, unassigned) [Compound 108]	< 50	≤ 1	≤ 1		
O=C(N[C@@H]1c2c(F)cccc2C[C@H]1N1CC[C@H](F)C1)c1ccc(-c2ccnc3[nH]ccc23)nc1 [Compound 170]	< 50	≤ 1	≤ 1		
O=C(N[C@H]1CCc2cc(C(F)F)ccc21)c1ccc(-c2ccnc3[nH]ccc23)cc1 (single isomer, unassigned) [Compound 125]	< 50	≤ 1	≤ 1		
Cc1c[nH]c2nccc(-c3ccc(C(=O)N[C@@H]4c5c(F)cc(C(F)F)cc5OCC4O)cn3)c12 (single isomer, unassigned) [Compound 171]	< 50	≤ 1	≤ 1		
Cc1c[nH]c2nccc(-c3ccc(C(=O)N[C@H]4C[C@@H](C)Oc5ccc(F)c(F)c54)cn3)c12 [Compound 148, N-[(2R,4S)-5,6-Difluoro-2-methyl-3,4-dihydro-2H-1-benzopyran-4-yl]-6-{3-methyl-1H-pyrrolo[2,3-b]pyridin-4-yl}pyridine-3-carboxamide]	0.01 to 100	≤ 1	≤ 1		
